Laboratory results as given in patent US5753240A, “Fluorinated compounds and compositions comprising them” (L'Oreal, priority 1994, dated 1998).

Legend:
Type in all cases: physicochemical
[1] = Thickening effect of Example 1 on various vehicles: Olive oil; details: 0.2% in Olive oil
Protocol: (§1) The thickening of the medium can be carried out by completely dissolving the fluorinated compound of formula I, at a temperature ranging from 20° C. to 80° C., and then by allowing the mixture to stand until it is completely thickened.
(§2) Thickening effect of Example 1 on various vehicles
(§3) Gelled media were thus obtained.

[2] = Thickening effect of Example 1 on various vehicles: Parleam oil; details: 0.2% in Parleam oil
Protocol: as §1, §2
(§4) As is evident, Sunflower refers to Sunflower oil and Parleam refers to Parleam oil. Eutanol G is a tradename for octyldodecanol and is manufactured by Henkel.
as §3

[3] = Thickening effect of Example 1 on various vehicles: Perhydrosqualene; details: 0.2% in Perhydrosqualene
Protocol: as §1, §2, §3

[4] = Stability of the thickened (gelled) media over time; details: over a period of over 6 months
Description: as §3

[5] = Thickening effect of Example 1 on various vehicles: Petroleum jelly; details: 0.2% in Petroleum jelly
Protocol: as §1, §2, §3

[6] = Thickening effect of Example 1 on various vehicles: Sunflower oil; details: 0.2% in Sunflower oil
Protocol: as §1, §2, §4, §3

With CCCCCCCCCCCCCCCCOC(=O)NCCCCCCCCCCC(=O)OCCC(F)(F)C(F)(F)C(F)(F)C(F)(F)C(F)(F)C(F)(F)C(F)(F)C(F)(F)F [Example 1, 2-(F-octyl)ethyl 11-(N-hexadecyloxycarbonyl)aminoundecanoate] as the compound, how does the Thickening effect [1] read?
The Thickening effect was “no effect”.

And the Thickening effect [2]?
Its Thickening effect is “no effect”.

What about the Thickening effect [3] of the same compound?
The Thickening effect was “no effect”.

What about the “Stability of thickened media” value [4] of the same compound?
The value was “perfect stability”.

What about the Thickening effect [5] of the same compound?
Its Thickening effect is “no effect”.

What about the Thickening effect [6] of the same compound?
Its Thickening effect is “no effect”.
